The record followed here is patent publication US11298383B2, “Lactobacillus and bacillus based direct fed microbial treatment for poultry and method of use” (priority 2016, dated 2022).

Assay [1] deals with avian pathogenic Escherichia coli (APEC). Nature of the assay: APEC levels in GI tract of commercial broilers at 12-15 days, with and without in ovo gentamycin (Example 2). It counts as in vivo. The settings on record: GI tract of broilers at 12-15 days of age.
For assay [2] the test system is unchanged. The assay is classed as in vivo. Particulars: 3 days of age; ½ dose in ovo gentamycin; all birds treated with the product.
Assay [3] concerns inflammatory cytokine gene expression (MIP2, TNFα, IL-6) in IEC-6 rat intestinal epithelial cells. Put plainly: Inflammatory cytokine gene expression (qPCR) in IEC-6 cells with and without LPS challenge (Example 6). Particulars: LPS alone, 1 hr at 37° C. It counts as cell-based. On the technique in general: Quantitative PCR measures a nucleic acid by following its amplification.

As to gentamycin, in assay [1], the “birds with detectable levels of APEC” value is 2 out of 10 birds. Further, the “average APEC level” value in assay [1] (ten birds per treatment) is given as 6.6×10^1 CFU/g. In addition, the “APEC levels, gentamycin-treated vs untreated birds” value in assay [2] is given as “not statistically different”.
In the case of Lipopolysaccharide, in assay [3], the “increase in gene expression of all three inflammatory cytokines (MIP2, TNFα, IL-6) relative to unstimulated control cells” value was above 50 fold.
